The values below come from US5424329A, “Indole-2-carboxamides as inhibitors of cell adhesion” (Warner-Lambert Company, priority 1993, dated 1995).

Counter-ions that a name gives are not always drawn.

In the first assay the test system is HIV activation in OM-10.1 cells. Put plainly: Inhibition of activation of latent HIV in OM-10.1 cells. The conditions noted are these: Human immunodeficiency virus 1, chronically HIV-infected promyelocytic clone. The assay is classed as cell-based, HIV-1. The text has this:
The cellular pathways involved in mediating the activating signal from the plasma membrane to the integrated virus, resulting in HIV-1 expression, are much less clear. Recently, the development of a reliable and simple system for evaluating compounds that could prevent activation of latent HIV was reported at the National […] (NCDDG)/AIDS by P. Feorino, S. T. Butera, T. M. Folks, and R. F. Schinazi, Nov. 3-7, 1991. The assay system employed the OM-10.1 cell line, a unique chronically-infected promyelocytic clone which remains CD4+ until HIV-1 activation with tumor necrosis factor-α. The expression of CD4+ on the cell surface and the activity of reverse transcriptase are used as markers for quantitating viral expression. Alternatively, other HIV markers, such as protease activity, which are known to those of skill in the art can be used. OM-10.1 cells remain CD4^+ until viral activation and respond to tumor necrosis factor induction, and therefore, these cultures are used to conveniently and rapidly examine pharmacologics for an ability to prevent CD4^+ down modulation (decrease in expression of CD4^+ on the cell surface) and HIV-1 expression.
In the case of `COc1ccc2c(c1)c(OC(C)C)c(C(N)=O)n2C` [Example 1, 5-Methoxy-1-methyl-3-(1-methylethoxy)-1H-indole-2-carboxamide], inhibition was half-maximal at 0.8 µM (IC50).

Another assay deals with human neutrophil adhesion to TNF-α, IL-1α, and LPS-stimulated human umbilical vein endothelial cells (HUVEC). Put plainly: Inhibition of human neutrophil adhesion to TNF-α, IL-1α, and LPS-stimulated human umbilical vein endothelial cells (chromium assay). The assay is classed as cell-based.
Details: not given
The source says: METHOD FOR DETERMINING THE INHIBITION OF HUMAN NEUTROPHIL ADHESION TO TNF-α, IL-1α, AND LPS-STIMULATED HUMAN UMBILICAL VEIN ENDOTHELIAL
CELLS BY 3-SUBSTITUTED-INDOLE-2-CARBOXAMIDES
Neutrophils were isolated from anticoagulant-treated venous blood obtained from healthy human volunteers according to the method of Ferrante and Thong (J. Immunol. Methods 1978;24:389-393). The cell preparations consisted of greater than 98% neutrophils.
Second passage human umbilical vein endothelial cells (HUVEC) (Clonetics, San Diego, Calif.) were seeded into Falcon 24-well cell culture plates (Becton Dickinson, Lincoln Park, N.J.) at approximately 2×10^4 cells per well. The cells were grown to confluent monolayers in endothelial basal medium (EBM, Clonetics) supplemented with 5% fetal calf serum (Hyclone Laboratories, Logan, Utah), 10 ng/mL EGF, 1μg/mL hydrocortisone, 0.4% bovine brain extract (Clonetics) in 5% CO2 at 37° C. […]
Stimulation of HUVEC with tumor necrosis factor-α (TNF-α) (Genzyme, Cambridge, Mass.), interleukin (IL-1α) (Genzyme) or E. coli 0111:B4 lipopolysaccharide (LPS) (Sigma) in the presence or absence of drug was initiated 4 hours prior to the addition of neutrophils. […] Lysates were collected and the radioactivity in each well was determined by gamma ray spectroscopy.
As for `COc1ccc2c(c1)c(OC(C)C)c(C(N)=O)n2-c1ccccc1` [Example 16, 5-Methoxy-3-(1-methylethoxy)-1-phenyl-1H-indole-2-carboxamide], testing at 100 µM gave an inhibition of 35%.

The subject of the next assay is human neutrophil adhesion to TNF-α stimulated human umbilical vein endothelial cells (HUVEC). Put plainly: Inhibition of human neutrophil adhesion to TNF-stimulated human umbilical vein endothelial cells (modified method, calcein-AM fluorescence). The assay is classed as cell-based. The conditions noted are these: 4 hours, IC50 from 33.3, 10.0, 3.3 and 1.0 μM. As for the experimental part:
MODIFIED METHOD FOR DETERMINING THE INHIBITION OF HUMAN NEUTROPHIL ADHESION TO TNF-α, IL-1α, AND LPS STIMULATED
HI/MAN UMBILICAL VEIN ENDOTHELIAL CELLS BY
3-SUBSTITUTED-INDOLE-2-CARBOXAMIDES
Second passage HUVEC (Clonetics Corporation, San Diego, Calif., CC-2617) were seeded into Corning (Corning glass works, Corning, N.Y.) 96-well cell culture plates at approximately 5×10^3 cells/well and grown to confluency in supplemented endothelial basal medium (EBM, MCDB-131, Clonetics, 10 ng/mL EGF, 1 μg/mL hydrocortisone, 0.4% bovine brain extract, 5% Fetal Bovine Serum). One day prior to running the assay, typically 3 days postseeding, the cultures were re-fed with 0.2 mL/well supplemented EBM (S-EBM).
Preparation of Test Compounds
Test compounds were prepared as 10 mL stock solutions at a concentration of 1.0 mM. The compounds were initially solubilized in 0.1 mL DMSO followed by the addition of 9.9 mL S-EBM. The drug preparations were then diluted in one step to a concentration of 66.6 μM. Solubilizations and dilutions were performed in polystyrene containers.
Isolation of Human Neutrophils
Human neutrophils were isolated from anticoagulant-treated venous blood obtained from healthy volunteers according to the method of Ferrante and Thong, J. Immunol. Methods 1978;24:389-393. The cell preparations consisted of greater than 98% neutrophils.
Recombinant human tumor necrosis factor-α (TNF, Genzyme, Boston, Mass., code TNF-H) was prepared at 400 U/mL in S-EBM. Stock TNF was prepared to 20,000 U/mL in Delbecco's phosphate buffered saline (PBS, Gibco, Grand Island, N.Y.) plus 0.1% BSA and stored at -70° C. HUVEC were washed one time with 0.2 mL warm unsupplemented EBM and then stimulated for 4 hours at 37° C. with 200 U/mL TNF in the presence of 33.3 μM test compound. This was accomplished by adding 0.1 mL of 400 U/mL TNF and 0.1 mL 66.6 μM test compound. These additions were done slowly as to not disrupt the HUVEC monolayer. Each compound was tested in six wells. Unstimulated (vehicle control) and TNF-stimulated without test compound treatments were also run in each plate.
One hour prior to adding the neutrophils to the HUVEC, neutrophils (5×10^6 /mL) were labeled for 30 minutes at 37° C. with 5 μM calcein-AM (Molecular Probes, Eugene, Oreg.) in Hanks' balanced salt solution plus 0.45% BSA. Stock calcein was prepared to 5 mM in anhydrous DMSO and stored desiccated at -20° C. At the end of the incubation the cells were washed two times in cold HBSS and resuspended to a final concentration of 1×10^6 cells/mL in unsupplemented EBM.
Addition of Neutrophils to HUVEC
At the end of the 4-hour stimulation and immediately prior to the addition of the neutrophils to the HUVEC monolayer, the plates were washed with 0.2 mL warm unsupplemented EBM to remove TNF and drug. Neutrophils (1×10^5 cells) were slowly added to each of the treated wells and incubated for 30 minutes at 37° C. At the end of the incubation the plates were washed two times with 0.2 mL warm unsupplemented EBM followed by a final addition of 0.1 mL for plate scanning.
Determination of Relative Fluorescence
The relative fluorescence was determined using a Millipore Cytofluor 2300 system (excitation=480, emission=530, sensitivity=4). Each file was saved on disk as a comma separated value (.CSV) file for import into a spreadsheet.
Results were expressed as means of percent inhibition of TNF-stimulated adherence. A Quattro Pro (Borland, Scotts Valley, Calif.) spreadsheet has been programmed to accept the raw data and perform all necessary calculations. [formula]
Linear regression analysis of the means of the inhibition values were used to determine the IC50.
For `COc1ccc2c(c1)c(OC(C)C)c(C(N)=O)n2C` [Example 1, 5-Methoxy-1-methyl-3-(1-methylethoxy)-1H-indole-2-carboxamide], the IC50 (usually the concentration that inhibits the measured activity by half) is 10 µM.
On the same count and under the same terms, for `CC(C)Oc1c(C(N)=O)n(C)c2ccc(O)cc12` [Example 15, 5-Hydroxy-1-methyl-3-(1-methylethoxy)-1H-indole-2-carboxamide] the value was 7 µM; for `COc1ccc2[nH]c(C(N)=O)c(OC(C)C)c2c1` [Example 18, 5-Methoxy-3-(1-methylethoxy)-1H-indole-2-carboxamide], 8 µM.
For the molecule `COc1ccc2c(c1)c(SC(C)C)c(C(N)=O)n2C` [Example 26, 5-Methoxy-1-methyl-3-[(1-methylethyl)thio]-1H-indole-2-carboxamide], the IC50 was 29 µM.
On the same count and under the same terms, for `CC(C)Sc1c(C(N)=O)n(C)c2ccc(O)cc12` [Example 29, 5-Hydroxy-1-methyl-3-[(1-methylethyl)thio]-1H-indole-2-carboxamide] the value was 43 µM; for `COCn1c(C(N)=O)c(OC(C)C)c2cc(OC)ccc21` [Example 30, 5-Methoxy-1-methoxymethyl-3-(1-methylethoxy)-1H-indole-2-carboxamide], 34 µM.

The same assay, now with this note: @ 33 μM.
For the molecule `COc1ccc2c(c1)c(SC)c(C(N)=O)n2C` [Example 6, 5-Methoxy-1-methyl-3-(methylthio)-1H-indole-2-carboxamide], the inhibition (in general, the drop in the measured response relative to a control, in per cent) at 33 µM was 72%.
Still for that read-out and setting: to `CCOc1c(C(N)=O)n(-c2ccccc2)c2ccc(OC)cc12` [Example 19, 3-Ethoxy-5-methoxy-1-phenyl-1H-indole-2-carboxamide] belongs 13%; to `CCN(CC)c1c(C(N)=O)[nH]c2ccc(OC)cc12` [Example 20, 3-(Diethylamino)-5-methoxy-1H-indole-2-carboxamide, monohydrochloride], 27%; to `CC(C)Sc1c(C(N)=O)n(C)c2ccc(OCc3ccccc3)cc12` [Example 23, 1-Methyl-3-[(1-methylethyl)thio]-5-(phenylmethoxy)-1H-indole-2-carboxamide], 15%.

Another assay deals with activation of HIV-1 in OM-10.1 cells.
Experiment: not given
The conditions noted are these: poster NCDDG/AIDS 1991; cited from earlier work.
Turning to `Cc1cn([C@H]2C[C@H](F)[C@@H](CO)O2)c(=O)[nH]c1=O` [3'-fluoro-3'-deoxythymidine (FLT), 3'-fluoro-3'-deoxythymidine], the “inhibition of the activation of HIV-1” value was “modest inhibitors”.
As to `CC(=O)N(O)CCCCCNC(=O)CCC(=O)N(O)CCCCCNC(=O)CCC(=O)N(O)CCCCCN` [desferrioxamine], the “inhibition of the activation of HIV-1” value is on record as “modest inhibitors”.
As to interferon Y: interferon Y, the “inhibition of the activation of HIV-1” value is reported as “modest inhibitors”.
